Measurements reported in PMC6858493 (ACS chemical biology, 2019).

Tests used:
[1] = tested on: RAW 264.7 murine macrophages; experiment: cells; format: cell-based; conditions: Mus musculus, RAW264.7, 24 h, read-out: EC50 (cell killing)
Lon [2] = target: Lon (Escherichia coli, UniProt P0A9M0); experiment: biochemical; format: biochemical, E. coli; conditions: for inhibition of recombinant Lon: with varied pre-incubation time
E. coli [3] = experiment: E. coli exponential growth rate; format: cell-based, Escherichia coli; conditions: 100 μM compound
h20S (β1) = h20S (β1) (Homo sapiens, UniProt P28072); experiment: h20S β1 subunit inhibition assay; format: biochemical
h20S (β2) = h20S (β2) (Homo sapiens, UniProt Q99436); experiment: h20S β2 subunit inhibition assay; format: biochemical; conditions: 60 min enzyme-inhibitor pre-incubation; mean ± SD, n=3
E. coli [4] = experiment: Ciprofloxacin persister cell quantification; format: cell-based, Escherichia coli
E. coli [5] = experiment: UV-induced filamentation of E. coli; format: cell-based, Escherichia coli
h20S (β5) = h20S (β5) (Homo sapiens, UniProt P28074); experiment: h20S β5 subunit inhibition assay; format: biochemical
E. coli [6] = experiment: Ciprofloxacin MIC measurement; format: cell-based, Escherichia coli; conditions: wild-type cells, 100 μm 11
E. coli Lon = conditions: cited from earlier work
Lon [7] = conditions: ratio of normalized cleavage rates at 25 μM substrate
[8] = 60 min enzyme-inhibitor pre-incubation, mean ± SD, n=3

Lon (Escherichia coli, UniProt P0A9M0), sequence (P0A9M0 whole entry): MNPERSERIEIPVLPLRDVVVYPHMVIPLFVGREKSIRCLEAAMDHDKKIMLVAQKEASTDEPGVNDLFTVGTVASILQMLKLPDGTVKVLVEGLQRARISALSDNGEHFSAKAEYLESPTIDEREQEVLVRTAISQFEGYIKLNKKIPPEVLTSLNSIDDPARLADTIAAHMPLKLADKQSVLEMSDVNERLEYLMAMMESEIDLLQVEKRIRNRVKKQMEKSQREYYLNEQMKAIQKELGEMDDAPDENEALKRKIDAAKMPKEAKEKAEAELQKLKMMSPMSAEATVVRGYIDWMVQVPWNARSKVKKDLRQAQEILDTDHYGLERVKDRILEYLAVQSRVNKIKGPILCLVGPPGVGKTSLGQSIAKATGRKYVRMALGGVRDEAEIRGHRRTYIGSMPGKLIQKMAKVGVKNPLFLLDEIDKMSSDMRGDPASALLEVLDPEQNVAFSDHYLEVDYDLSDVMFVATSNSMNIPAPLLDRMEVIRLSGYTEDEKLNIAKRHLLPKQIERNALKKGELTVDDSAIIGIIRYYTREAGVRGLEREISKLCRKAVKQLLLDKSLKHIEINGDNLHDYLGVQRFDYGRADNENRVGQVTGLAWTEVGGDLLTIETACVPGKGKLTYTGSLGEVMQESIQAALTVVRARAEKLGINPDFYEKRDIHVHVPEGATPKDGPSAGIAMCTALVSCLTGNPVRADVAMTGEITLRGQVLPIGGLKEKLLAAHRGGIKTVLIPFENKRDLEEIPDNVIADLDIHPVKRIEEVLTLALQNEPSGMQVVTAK

Compound: CC(C)C[C@H](NC(=O)[C@H](Cc1ccccc1)NC(=O)c1cnccn1)B(O)O [BZ, bortezomib, reference compound]
- EC50 [1]: 160 nM
- IC50 (Lon [2]): 500 ± 230 nM
- inhibition of recombinant Lon (Lon [2]): potent, time-dependent inhibition
- effect on exponential growth rates (E. coli [3]): nor treatment with 100 μM 11 or BZ had an effect

Compound: CC(C)C[C@H](NC(=O)[C@H](CC(C)(C)C)NC(=O)[C@H](CCCCNC(=N)N)NC(=O)c1cnccn1)B(O)O [compound 11, Pyz-hArg-nptGly-Leu-B(OH)2]
- IC50 (h20S (β1); [8]): 1900 ± 140 nM
- Relative activity (ratio of BZ IC50 to 11 IC50) (h20S (β1); h20S β1): 0.2
- IC50 (h20S (β2)): 430 ± 40 nM
- time course of killing (E. coli [4]; co-treatment with ciprofloxacin and 100 μM 11): faster death than wild type
- fraction of cells that tolerated ciprofloxacin (E. coli [4]; sulA mutant strain): this effect was abrogated
- fraction of cells that tolerated ciprofloxacin (E. coli [4]; wild-type cells, co-treatment with 10 μg/mL ciprofloxacin, LB and M9 media): statistically-significant reduction
- filamentation after UV stress (E. coli [5]; sulA mutant strain): no effect on filamentation
- filamentation after UV stress (E. coli [5]; wild-type, treatment during 6 h outgrowth following UV-stress): dose-dependent increase in filamentation
- IC50 (h20S (β5); [8]): 290 ± 6.4 nM
- Relative activity (ratio of BZ IC50 to 11 IC50) (h20S (β5); h20S β5): 0.1
- effect on MIC of ciprofloxacin (E. coli [6]): nor treatment of wild-type cells with 100 μm 11 altered the overall MIC
- Relative activity (ratio of BZ IC50 to 11 IC50) (Lon [2]; Lon): 1.2
- kinact/KI relative to BZ (Lon [2]; time-dependent inhibition of Lon): two-fold higher
- inhibition of recombinant Lon (Lon [2]): potent, time-dependent inhibition
- effect on exponential growth rates (E. coli [3]): nor treatment with 100 μM 11 or BZ had an effect

Compound: CN(C)c1cccc2c(S(=O)(=O)F)cccc12 [dansyl fluoride]
- inhibition of E. coli Lon (E. coli Lon): only at mM concentrations

Compound: Mo-Leu-Leu-Phe-ACC [compound 1]
- selectivity of cleavage, Lon vs h20S (Lon [7]): cleaved equally effectively by both Lon and the proteasome
